Here are results for one compound from PMC12081684, “A three-dimensional high throughput assay identifies novel antibacterial molecules with activity against intracellular Shigella” (npj Antimicrobials and Resistance, 2025).

Experiment [1] relates to intracellular S. flexneri SF_nanoluc in Caco-2 cells on Cytodex 3 beads. The experiment can be described thus: microbe, parasite or virus in culture. As to the method: S. flexneri SF_nanoluc was grown overnight on a 50mgL^-1 kanamycin LB plate at 37 °C. Bacteria were scraped from the plate surface and sub-cultured in warm supplemented EMEM medium for 2 h (at 37 °C and 200 rpm) and diluted to get OD around 0.3 at 625 nm. Induction was performed in 500 ml or 1000 ml siliconized spinner flasks under closed culture conditions. 200 mg autoclaved Cytodex 3 beads (GE Healthcare), rehydrated with cation-free PBS (Sigma), were washed with supplemented EMEM medium and inoculated with 1.7 million Caco-2 cells/ml in half of the desired culture volume of the medium. The spinner vessel was kept static for 4 h in a humidified atmosphere of 5% CO2 at 37 °C, allowing Caco-2 cells to bind to beads. The remaining medium was added into the vessel and stirred at 32.5 rpm. The medium was changed every 72 h, and the induction was used on day 17 to ensure Caco-2 cells were fully differentiated.
Cell concentration induction was measured by NucleoCounter® NC-100™ (ChemoMetec Version 2.4). Cellular invasion was initiated by adding the bacterial stock into cell induction with optimal MOI, and the vessel was stationary for an hour before stirring at 22.5 rpm for 5 h in a humid atmosphere of 5% CO2 at 37 °C. After incubation, culture media was discarded by centrifugation; and a gentamicin protection assay was performed, in which cell beads were washed twice with a warm medium and EMEM containing gentamicin (100ug ml^-1) was added to the chamber of the system. The cell culture was incubated for 1 h with stirring and then washed three times with a warm medium before 25 μl of the invasive mixture was dispensed into each well. Plates were incubated for two days in a humid atmosphere of 5% CO2 at 37 °C before proceeding to develop the luminescent signal by adding 10 μl mixture of nanoluciferase substrate (Nano-Glo® Luciferase Assay System, N1130, Promega) into each well. After standing at room temperature for 30 min, luminescent signals were quantified by the Envision Reader (PerkinElmer) in focus luminescent mode. For the bacterial tracking, we used the green fluorescent protein in S. flexneri ATCC 12022GFP to monitor the invasion.
The HTS assay was performed in 384-well black clear-bottom plates (Greiner). Screening compounds were prepared with an appropriate DMSO concentration (0.5% in cell-based assay). Every assay plate contained 16 wells of DMSO as negative controls and 16 wells of moxifloxacin at a final concentration of 20 μM as positive controls. These controls were used to monitor assay quality through determination of Z’ factor as well as normalizing the data on a per-plate basis.
To assess the quality of the dose-response assay, 11 commercially available antimicrobials were used to evaluate the reliability of the HTS assay. The percentage of coefficient of variation (CV%) was calculated by accessing the IC50 (μM) deviation of selected positive controls. Intra-assay reproducibility was determined by comparing the IC50 that were generated in the same run of the two replicates. Inter-assay reproducibility was assessed by comparing the IC50 generated by two replicates of each day over two days. Intra-assay %CV should be <10%, while inter-assay %CV should be <15%. To validate the HTS assay configuration, a set of 10 thousand compounds was assayed in 384-well plates at a final concentration of 10 μM. Assay were run in duplicate and confirmed if needed, a validation data was assessed to analyse the pros and cons of the whole procedure.
Following screening, all non-novel structures were removed, and the remaining compounds were subjected to a dose response (DR) assay, which was set as 3-fold serial dilution started at 100uM each compound.
The raw data of the plate reader was imported and analysed in ActivityBase and Spotfire version 10.3.1.18 (TIBCO).

For experiment [2], the system named is intracellular S. flexneri in Caco-2 cell monolayers. In words: Monolayer (plate-based) Caco-2 intracellular Shigella assay. Type of experiment: cell-based, Shigella flexneri. The text has this:
The IC50 comparison between plate-based (monolayers) and bead-based assay was applied for control (Moxifloxacin) to validate and compare between two methods. The average IC50s from monolayer assays were lower than bead-based assays, but there was no significant difference (p value > 0.05, using Mann-Whitney test) between two methods (Supplementary Table 6).

“And” between values parts separate entries of the source, which are not always exact repeats. Equal entries are not always repeated. Where two headings read alike, the source gives them in different places.

For orientation: IC50 means the midpoint of a concentration-inhibition curve. For `COc1c(N2C[C@@H]3CCCN[C@@H]3C2)c(F)cc2c(=O)c(C(=O)O)cn(C3CC3)c12` [Moxifloxacin, reference compound], the IC50 in experiment [1] (Shigella flexneri, Caco-2, read-out: IC50 (µM) Beads, Average, Average of three, Supplementary table 6) was 0.0305 µM; in experiment [1] (Shigella flexneri, Caco-2, read-out: IC50 (µM) Beads, single runs, Supplementary table 6) it was 0.0361 µM; in experiment [1] (Shigella flexneri, Caco-2, read-out: IC50 T1, 1st Batch, replicate T1), 0.0252 µM; in experiment [1] (Shigella flexneri, Caco-2, read-out: IC50 T2, 1st Batch, replicate T2) it was 0.0221 µM; in experiment [1] (Shigella flexneri, Caco-2, read-out: IC50 T3, 2nd Batch, replicate T3) it was 0.0235 µM; in experiment [1] (Shigella flexneri, Caco-2, read-out: IC50 T4, 2nd Batch, replicate T4), 0.0235 µM. Besides, the IC50 in experiment [1] (read-out: IC50 (µM) Beads, single runs, Supplementary table 6) is 0.0327 µM and 0.0226 µM; in experiment [2] (Shigella flexneri, Caco-2, Average of three, read-out: IC50 (µM) Monolayers, Average), 0.0232 µM; in experiment [2] (Shigella flexneri, Caco-2, single runs, read-out: IC50 (µM) Monolayers), 0.0236 µM; in experiment [2] (single runs, read-out: IC50 (µM) Monolayers), 0.0234 µM and 0.0228 µM.
